Experimental data as given in patent US20260176260A1, “DUAL RAF AND TUBULIN INHIBITORS AND METHODS OF USE THEREOF” (Deciphera Pharmaceuticals, LLC, priority 2023, published 2026).

How the values were obtained:
HPAF-II cells = test: HPAF-II cell proliferation assay (resazurin); type: cell-based; conditions: Table 5; read-out: HPAF-II
How it was run: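 Serial compound dilutions in triplicate with 750 cells/well in complete MEM with 10% FBS, 115 to 120 h at 37° C, 5% CO2. Resazurin then added for 18 to 24 h; fluorescence at ex 540/em 600 nm used to derive IC50.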

C-Raf kinase = target: T1, C-Raf kinase (Homo sapiens, UniProt P04049, Y340D/Y341D); test: Biochemical assay for C-Raf (coupled pyruvate kinase/lactate dehydrogenase); conditions: Table 5; read-out: CRAF
T1 construct: C-Raf residues 306-end; Y340D, Y341D with N-; purchased Sigma

Porcine Brain Tubulin = target: T2, Porcine Brain Tubulin (Sus scrofa, UniProt P02550+P02554); test: Biochemical tubulin polymerization assay; conditions: Table 5; read-out: Tubulin Biochem
T2 construct: Porcine Brain Tubulin (T240); purchased Cytoskeleton, Inc T240; BK011P; host or cells: porcine brain
T2 sequence (P02550 whole entry): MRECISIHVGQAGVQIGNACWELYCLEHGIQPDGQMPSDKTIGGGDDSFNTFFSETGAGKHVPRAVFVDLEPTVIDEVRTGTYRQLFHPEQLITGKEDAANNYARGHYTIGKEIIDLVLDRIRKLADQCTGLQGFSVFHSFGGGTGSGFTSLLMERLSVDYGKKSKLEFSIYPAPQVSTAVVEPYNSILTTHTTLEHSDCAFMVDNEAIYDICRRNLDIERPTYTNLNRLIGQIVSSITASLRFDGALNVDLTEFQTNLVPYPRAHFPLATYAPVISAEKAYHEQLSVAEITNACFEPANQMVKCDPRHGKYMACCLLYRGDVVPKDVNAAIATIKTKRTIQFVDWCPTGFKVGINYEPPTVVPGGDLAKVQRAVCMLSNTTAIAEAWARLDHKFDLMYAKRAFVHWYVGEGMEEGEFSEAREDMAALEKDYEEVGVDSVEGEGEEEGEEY
T2 sequence (P02554 whole entry): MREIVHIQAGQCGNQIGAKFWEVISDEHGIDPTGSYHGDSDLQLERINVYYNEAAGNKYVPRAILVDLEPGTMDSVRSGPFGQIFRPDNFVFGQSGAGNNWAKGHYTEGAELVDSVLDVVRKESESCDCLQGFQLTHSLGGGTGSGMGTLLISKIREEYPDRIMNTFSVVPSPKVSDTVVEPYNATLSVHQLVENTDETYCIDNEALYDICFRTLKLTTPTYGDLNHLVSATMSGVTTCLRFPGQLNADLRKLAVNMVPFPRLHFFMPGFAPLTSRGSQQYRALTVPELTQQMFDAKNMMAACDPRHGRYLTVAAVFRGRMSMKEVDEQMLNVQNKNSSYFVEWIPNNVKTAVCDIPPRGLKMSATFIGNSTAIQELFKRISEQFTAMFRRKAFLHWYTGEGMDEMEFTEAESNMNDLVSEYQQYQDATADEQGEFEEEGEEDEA

HCT-116 cells = test: HCT-116 cell proliferation assay (resazurin); type: cell-based; conditions: Table 5; read-out: HCT-116
How it was run: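 HCT-116 cells, 375 per well in McCoy's 5A with 10% FBS, exposed to serially diluted compound in triplicate for 67-72 h at 37 °C. Resazurin added for 4-5 h more; fluorescence (ex 540/em 600 nm) fitted to IC50.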

B-Raf kinase = target: T3, B-Raf kinase (Homo sapiens, UniProt P15056); test: Biochemical assay for B-Raf (coupled pyruvate kinase/lactate dehydrogenase); conditions: Table 5; read-out: BRAF
T3 construct: purchased Sigma
T3 sequence (P15056 416-766): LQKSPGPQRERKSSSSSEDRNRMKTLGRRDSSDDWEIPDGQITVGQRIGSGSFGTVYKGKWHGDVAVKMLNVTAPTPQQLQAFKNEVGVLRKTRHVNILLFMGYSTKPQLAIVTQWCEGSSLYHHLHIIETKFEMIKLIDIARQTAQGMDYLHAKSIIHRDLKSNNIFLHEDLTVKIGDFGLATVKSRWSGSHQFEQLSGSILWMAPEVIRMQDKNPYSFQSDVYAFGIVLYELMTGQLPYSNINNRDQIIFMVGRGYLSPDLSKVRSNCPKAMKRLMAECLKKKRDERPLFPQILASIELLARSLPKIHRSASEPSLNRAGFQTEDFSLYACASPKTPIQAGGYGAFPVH

MiaPaca-2 cells = test: MiaPaca-2 cell proliferation assay (resazurin); type: cell-based; conditions: Table 5; read-out: MiaPaca-2
[1] = system: tubulin polymerization in HCT-116 cells; test: Cellular tubulin polymerization assay (pellet/supernatant a-tubulin, HCT-116 cells); type: cell-based; conditions: Table 5, HCT-116 cells; read-out: Tubulin Cellular
Description: HCT-116 cells (catalog #CCL-247) are obtained from the American Type Culture Collect (ATCC, Manassas, VA). Briefly, cells are grown in McCoy's 5A supplemented with 10% characterized fetal bovine serum (Invitrogen, Carlsbad, CA) and 1% Penicillin/Streptomycin/L-Glutamine at 37° C., 5% CO2, and 95% humidity. Cells are expanded until reaching 70-95% confluency at which point they are sub-cultured or harvested for assay use. 450000 cells are added per well in 1500 μL complete growth medium in a tissue culture treated, 12-well plate. Plates are incubated for 18 to 24 h at 37° C., 5% CO2, and 95% humidity. At the end of the incubation, 2000 μL of base culture media is added to each well, followed by a serial dilution of compound. Plates are incubated for an additional 1 h at 37° C., 5% CO2, and 95% humidity. Lysates are generated by the addition of 100 μL Lysis and Microtubule Stabilization Buffer 1 (LMS01, Cytoskeleton Inc, Denver, CO) supplemented with GTP (BST06, Cytoskeleton Inc), ATP (BSA04, Cytoskeleton Inc), and Protease Inhibitor Cocktail Stock (PIC02, Cytoskeleton Inc). Cells are scraped off wells using a rubber cell scraper and collected in a clean 96-well plate. Lysates are centrifuged at 1000×g, 37° C. for 10 min and supernatant fraction is placed into an additional 96-well plate. The remaining pellet fraction is reconstituted in 100 μL LMS01 buffer and sonicated for 10 min. Pellet and Supernatant fractions are probed for a-tubulin via western blot analysis on the Jess System or equivalent (Bio-techne, Minneapolis, MN). Data is analyzed using Prism software (Graphpad, San Diego, CA) to calculate IC50 values.

Substance: Belvarafenib [reference compound]
- IC50 (HPAF-II cells): 1 to 10 µM
- IC50 (C-Raf kinase): < 100 nM
- IC50 (Porcine Brain Tubulin): > 100 µM
- IC50 (HCT-116 cells): 500 to 1000 nM
- IC50 (B-Raf kinase): < 100 nM
- IC50 (MiaPaca-2 cells): 1 to 10 µM
- IC50 [1]: 1 to 10 µM
